Data set [1] deals with Human immunodeficiency virus 1. Nature of the data set: Antiviral activity against HIV1 3B in human MT4 cells. The class given is functional, organism-based. As to conditions: Human immunodeficiency virus 1, 3B.
Data set [2] can be described thus: Selectivity index, ratio of inhibition of human MT4 cells to EC50 for HIV1 3B. The class given is toxicity, cell-based. The following applies: read-out: Selectivity Index.
The subject of a further data set is Rattus norvegicus. Nature of the data set: Antiinflammatory activity against carrageenan-induced edema in po dosed Albino rat. The class given is functional. In general terms: In the carrageenan paw model, swelling and tenderness develop within hours.
Data set [3] has as its target T1, Follicle-stimulating hormone receptor (Homo sapiens, UniProt P23945).
T1 sequence (P23945 whole entry): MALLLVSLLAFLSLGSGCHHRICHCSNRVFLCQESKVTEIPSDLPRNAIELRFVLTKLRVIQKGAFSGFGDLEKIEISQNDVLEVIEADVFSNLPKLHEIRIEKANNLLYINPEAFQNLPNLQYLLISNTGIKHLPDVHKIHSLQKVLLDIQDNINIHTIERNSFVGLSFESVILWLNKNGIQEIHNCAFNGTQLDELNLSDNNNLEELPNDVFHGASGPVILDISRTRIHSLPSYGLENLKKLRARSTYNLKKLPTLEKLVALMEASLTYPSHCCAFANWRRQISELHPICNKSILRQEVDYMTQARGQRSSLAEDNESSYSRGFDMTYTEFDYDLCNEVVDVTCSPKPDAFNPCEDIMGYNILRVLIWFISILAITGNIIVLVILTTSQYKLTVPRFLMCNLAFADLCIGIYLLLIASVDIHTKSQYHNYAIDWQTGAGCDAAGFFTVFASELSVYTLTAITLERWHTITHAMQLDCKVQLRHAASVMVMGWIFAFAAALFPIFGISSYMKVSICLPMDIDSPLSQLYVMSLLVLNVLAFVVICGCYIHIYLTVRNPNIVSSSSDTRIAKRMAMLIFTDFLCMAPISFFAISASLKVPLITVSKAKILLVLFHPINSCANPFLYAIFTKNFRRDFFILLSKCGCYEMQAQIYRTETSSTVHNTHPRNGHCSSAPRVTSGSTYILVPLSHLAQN
Briefly: Agonist activity at human recombinant FSH receptor. The class given is functional.

The subject of a further data set is Alternaria alternata. Briefly: Inhibition of Alternaria tenuis spore germination. The class given is functional.
A further data set relates to Mus musculus. Nature of the data set: Potentiation of pentobarbital-induced hypnosis in mouse assessed as sleeping time at 100 mg/kg relative to control. The class given is functional.
For data set [4], the target named is T2, Prostaglandin G/H synthase 2 (Mus musculus) (UniProt Q05769).
T2 sequence (whole entry): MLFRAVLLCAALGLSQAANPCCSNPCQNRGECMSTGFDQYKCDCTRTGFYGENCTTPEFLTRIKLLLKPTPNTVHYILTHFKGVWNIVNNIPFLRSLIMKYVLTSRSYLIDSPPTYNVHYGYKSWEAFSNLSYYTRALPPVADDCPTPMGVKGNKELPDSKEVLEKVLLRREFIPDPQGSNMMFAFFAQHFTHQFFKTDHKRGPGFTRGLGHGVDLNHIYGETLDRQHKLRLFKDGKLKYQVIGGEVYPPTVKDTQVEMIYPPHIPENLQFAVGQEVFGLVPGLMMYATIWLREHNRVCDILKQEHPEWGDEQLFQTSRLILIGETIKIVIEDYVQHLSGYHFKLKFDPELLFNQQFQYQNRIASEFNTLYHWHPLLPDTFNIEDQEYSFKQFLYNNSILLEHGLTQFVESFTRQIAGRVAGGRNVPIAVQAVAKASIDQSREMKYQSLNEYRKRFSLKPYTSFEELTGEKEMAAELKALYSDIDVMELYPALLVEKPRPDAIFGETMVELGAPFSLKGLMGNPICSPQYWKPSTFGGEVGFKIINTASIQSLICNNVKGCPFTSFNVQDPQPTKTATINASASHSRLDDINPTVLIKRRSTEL
Briefly: Inhibition of COX2 in mouse J774 cells at 1 uM. The class given is cell-based.

The target in data set [5] is T2, Prostaglandin G/H synthase 2 (Mus musculus). Nature of the data set: Inhibition of COX2 in mouse J774 cells at 10 uM. The class given is cell-based.
The next data set concerns Candida albicans. Nature of the data set: Antifungal activity against Candida albicans by serial double dilution method. The class given is functional.
A further data set relates to Cryptococcus neoformans. Nature of the data set: Antifungal activity against Cryptococcus neoformans by serial double dilution method. The class given is functional.

Converted amounts (≈) assume the structure as drawn.

`O=C1CSC(c2c(Cl)cccc2Cl)N1Cc1ccco1` (stereo not given) returned a half-maximal effective concentration (EC50) in data set [1] of 204 nM.
As to `Cc1cccc(N2C(=O)CSC2c2c(Cl)cccc2Cl)n1` (stereo not given), in data set [2], the selectivity ratio is 6470.
In the data set on Rattus norvegicus, `CC1SC(c2ccccc2F)N(c2ccc(Br)cc2C(=O)O)C1=O` (stereo not given) came in with an ED50 of 100 mg/kg.
As to `COc1ccc(C2SC(CC(=O)NCCC3=CCc4ccccc43)C(=O)N2c2ccc(C(N)=O)c(Cl)c2)cc1` (stereo not given), the EC50 in data set [3] is 5000 nM.
With `CCN1C(=O)C(C)S/C1=N\c1nc2cc(Cl)ccc2s1` (stereo not given), the “inhibition (INH)” value in the data set on Alternaria alternata is 100%.
As to `O=C1CS/C(=N\c2ccccc2)N1c1ncccn1`, the Time in the data set with Mus musculus came to 98.6 min. In addition, the “inhibition (INH)” value in the data set on Alternaria alternata is 100%.
For `CCCN1C(=O)/C(=C2\C=CC(OC)=CC2)S/C1=N\c1ccccc1`, the inhibition in [4] came out at 35%; in [5], 55%.
For the compound `CCCCC1C(=O)N(c2ccccc2)N(c2ccccc2)C1=O` [PHENYLBUTAZONE], in the data set on Rattus norvegicus, the ED50 is 94.4 mg/kg.
On to `CCN1C(=O)C(C)S/C1=N\c1nc2c(Cl)cccc2s1` (stereo not given), for which the “inhibition (INH)” value with Alternaria alternata worked out at 100%.
Consider `CCCCCCCCCCCCN1C(=O)CSC12CCC(C(=O)C(N)Cc1ccccc1)CC2` (stereo not given), for which the MIC in the data set with Candida albicans and with Cryptococcus neoformans was 50 µg/mL (≈ 103 µM) throughout.
Take `O=C1CS/C(=N\c2ccccc2)N1CCCN1CCOCC1`: the Time in the data set with Mus musculus came out at 98.6 min. Moreover, the “inhibition (INH)” value in the data set on Alternaria alternata is listed as 100%.

By EC50 is commonly meant the concentration that produces a half-maximal response. Usually ED50 stands for the midpoint of the dose-response relation. Low values mean greater potency, high ones weaker potency. A word on the inhibition: it is the drop in the measured response relative to a control, in per cent. A lower inhibition goes with a response near the control. The MIC is the lowest concentration found to suppress growth. A lower MIC goes with greater potency.
